Test results from BigSolDB 2.1.

CC(CCc1ccccc1)NCC(O)c1ccc(O)c(C(N)=O)c1.Cl (stereo unspecified)
solubility (mole fraction)
Details	in ethanol	in ethyl acetate	in isobutanol	in isopropanol	in methanol	in n-butanol	in n-propanol	in sec-butanol	in water
288.15 K	0.00124	0.000116	0.000136	0.00011	0.00883	0.000385	0.000478	0.000167	0.000711
293.15 K	0.00145	0.000163	0.000184	0.000164	0.0101	0.000467	0.00058	0.000211	0.000898
298.15 K	0.0017	0.000237	0.000257	0.000253	0.0114	0.000565	0.00071	0.000278	0.00118
303.15 K	0.00198	0.000302	0.000326	0.000355	0.013	0.000675	0.000841	0.000336	0.00145
308.15 K	0.00222	0.000406	0.000429	0.000492	0.0144	0.000808	0.001	0.000411	0.00172
313.15 K	0.00253	0.000531	0.00056	0.000675	0.0162	0.000967	0.00121	0.000515	0.00212
318.15 K	0.00288	0.000689	0.000729	0.000985	0.0182	0.00116	0.00144	0.000643	0.00266
323.15 K	0.0035	0.000823	0.000981	0.0014	0.0204	0.00136	0.00173	0.000804	0.00337
328.15 K	0.00395	0.00109	0.00126	0.00194	0.0228	0.00163	0.00194	0.000983	0.00409
